In patent EP1745783A1, “Substituted pyrazoline compounds, their preparation and use as medicaments” (Laboratorios del Dr. Esteve S.A., priority 2005, dated 2007):

Key:
cannabinoid receptors [1] = experiment: Mouse tetrad model, agonistic effect; type: in vivo, Male NMRI mice; details: 5 mg/kg i.v., mice
From the text: (§1) Substances with affinity for cannabinoid receptors are known to produce a wide range of pharmacological effects. It is also known that intravenous administration of a substance with affinity for cannabinoid receptors in mice produces analgesia , hypothermia, sedation and catalepsy. Individually, none of these effects can be considered as proof that a tested substance has affinity for cannabinoid-receptors, since all of these effects are common for various classes of centrally active agents. However, substances, which show all of these effects, i.e. substances that are active in this so-called tetrad model are considered to have affinity for the cannabinoid receptors. It has further been shown that cannabinoid receptor antagonists are higly effective in blocking the effects of a cannabinoid agonist in the mouse tetrad model.
(§2) The tetrad model is described, for example, in the publication of A. C. Howlett et al, International Union of Pharmacology XXVII. Classification of Cannabinoid Receptors, Pharmacol Rev 54, 161-202 , 2002 and David R. Compton et al., "In-vivo Characterization of a Specific Cannabinoid Receptor Antagonist (SR141716A) :Inhibition of Tetrahydrocannbinol- induced Responses and Apparent Agonist Activity", J. Pharmacol. Exp. Ther. 277 , 2, 586-594, 1996. The corresponding parts of the description are hereby incorporated by reference. […]
(§3) Before testing in the behavioral procedures given below, mice are acclimatized to the experimental setting. Pre-Treatment control values are determined for analgesia hot plate latency (in seconds), rectal temperature, sedation and catalepsy.
In order to determine the agonistic activty of the substance to be tested, the mice are injected intravenously with the substance to be tested or the vehicle alone. 15 minutes after injection, latency in hot plate analgesia is measured. Rectal temperature, sedation and catalepsy are measured 20 minutes after injection.
(§4) The hot plate analgesia is determined according to the method described in Woolfe D. et al. "The evaluation of analgesic action of pethidine hydrochloride (Demerol)", J. Pharmacol. Exp. Ther. 80, 300-307,1944. […]
(§5) The mice are placed on a hot plate (Harvard Analgesimeter) at 55 ± 0.5 °C until they show a painful sensation by licking their paws or jumping and the time for these sensations to occur is recorded. This reading is considered the basal value (B). […]
(§6) Fifteen minuts after the administration of the substance to be tested, the mice are again placed on the hot plate and the afore described procedure is repeated. This period is called the post-treatment reading (PT).
(§7) The degree of analgesia is calculated from the formula : %MPE of Analgesia = (PT-B)/(PC-B) × 100 [formula] […]

cannabinoid receptors [2] = experiment: Mouse tetrad model, antagonistic effect against Win 55212-2; type: in vivo, Male NMRI mice; details: 5 mg/kg i.v. prior to Win 55212-2 in a dose of 1,25mg/kg i.v., mice
From the text: as §1, §2, §3
In order to determine the antagonistic activity the identical procedure is used as for the determination of the agonistic effects, but with the difference that the substance to be evaluated for its antagonistic activity is injectected 5 minutes before the intravenous injection of 1.25 mg/kg Win-55,212 a known cannabinoid-receptor agonist.
as §4, §5, §6, §7

O=C(NN1CCCCC1)C1=NN(c2ccc(Cl)cc2Cl)C(c2ccc(Cl)cc2)C1 (centres unmarked) [Example 1, N-piperidinyl-5-(4-chlorophenyl)-1-(2,4-dichlorophenyl)-4,5-dihydro-1H-pyrazole-3-carboxamide]
Agonistic effect A: Hot-Plate test (cannabinoid receptors [1]): 0 | Agonistic effect B: Hypothermia (cannabinoid receptors [1]): 0 | Agonistic effect C: Catalepsy (cannabinoid receptors [1]): 0 | Agonistic effect D: Sedation (cannabinoid receptors [1]): 0 | Antagonistic Effect A: Hot-Plate test (cannabinoid receptors [2]): 74 | Antagonistic Effect B: Hypothermia (cannabinoid receptors [2]): 100 | Antagonistic Effect C: Catalepsy (cannabinoid receptors [2]): 100 | Antagonistic Effect D: Sedation (cannabinoid receptors [2]): 100
